In patent US12427120B2, “Compositions comprising guaifenesin and flavour compounds containing an isovanillyl group” (SYMRISE AG, priority 2018, dated 2025):
“And” between values parts separate entries of the source, which are not always exact repeats. Equal values may be shown once. Marks after values point to notes of the source that are not given here.

How the values were obtained:
[1] = tested on: guaifenesin-induced bitterness perception; assay: Sensory panel test of guaifenesin-induced bitterness perception (sip and spit, scale 0 to 100); format: in vivo, human; settings: trained panel n=20 to 30
Protocol: To verify the effect of hesperetin and phyllodulcin on guaifenesin-induced bitterness perception, an aqueous solution of 1.3 g/l guaifenesin (1) was tested against an aqueous solution containing 1.3 g/l guaifenesin and 100 mg/l hesperetin (2) or 7 mg/l phyllodulcin (3) or 100 mg/l homoeriodictyol as comparison (4). The test was conducted as a randomized comparison test in a trained sensory panel (n=20 to 30) via a sip and spit procedure. The panellists tasted both solutions in a blinded fashion and rated bitterness on a scale of 0 to 100.

HGT-1 cells = assay: Guaifenesin-induced acid (proton) secretion in HGT-1 cells; format: cell-based, Human; settings: for change in proton secretory activity of HGT-1 cells compared to 10 mM guaifenesin alone: 30 μM co-incubated with 10 mM guaifenesin, from 10 min onwards
Excerpt: Human gastric tumour cell line 1 (HGT-1; Laboisse C. L.; Augeron C.; Couturier-Turpin M. H.; Gespach C.; Cheret A. M.; Potet F., Characterization of a newly established human gastric cancer cell line HGT-1 bearing histamine H2-receptors, Canc. Res., 1982, 42, 1541 to 1548) is a suitable screening tool for detecting the interaction of bitter agents and bitter modulating substances (Liszt, K. I.; Hans, J.; Ley, J. P.; Kock, E.; Somoza, V., Characterization of bitter compounds via modulation of proton secretion in human gastric parietal cells in culture, J. Agric. Food Chem., 2018, 66 (10), 2295-2300.). Therefore, the effect of hesperetin and phyllodulcin on guaifenesin-induced acid secretion in the HGT-1 cell line was determined to predict the modulation of guaifenesin-induced bitterness by hesperetin and phyllodulcin. To this aim, HGT-1 cells were cultured under standard conditions and passaged at ca. 80% confluence. […] HGT-1 cells were pre-loaded with (acetyloxy)methyl-3-(acetyloxy)-10-(dimethylamino)-3′-oxo-spiro[7H-benzo[c]xanthene-7,1′(3H)-isobenzofuran]-ar′-carboxylate and incubated in 130 mM NaCl 130, 4.7 mM KCl, 1.3 mM CaCl2), 1.2 mM MgSO4, 1.2 mM KH2PO4, 11.7 mM glucose, 10 mM HEPES 10, 20 μM 4,4′-Diisothiocyanatostilbene-2,2′-disulfonic acid disodium and 20 μM 5-(N-Ethyl-N-isopropyl)amiloride at pH 7.4. Fluorescence recordings were performed with an excitation wavelength of 488 nm and monitoring the emission wavelengths of 580 nm and 640 nm, respectively, each with a 20 nm bandwidth. […]
The data in Table 1 and Table 2 are presented as mean±SEM derived from 3 biological replicates and 6 to 9 technical replicates. Outliers were identified using the Nalimov test, statistical significance was tested one-way ANOVA with Tukey's range test for multiple comparisons and Bonferroni correction, establishing the threshold for significance at p<0.01. Accordingly, data are marked with *(p<0.007), **(p<0.001) or ***(p<0.0001). Control: untreated cells

guaifenesin bitterness = settings: 200 ppm (200 mg/l, 0.2 mg/ml) HED against 13 mg/ml guaifenesin; cited from earlier work
[2] = 30 μM flavour compound co-incubated with 10 mM guaifenesin, time-point 0 min
[3] = 30 μM flavour compound co-incubated with 10 mM guaifenesin, time-point 5 min
[4] = 30 μM flavour compound co-incubated with 10 mM guaifenesin, time-point 10 min
[5] = 30 μM flavour compound co-incubated with 10 mM guaifenesin, time-point 15 min
[6] = 30 μM flavour compound co-incubated with 10 mM guaifenesin, time-point 20 min
[7] = 30 μM flavour compound co-incubated with 10 mM guaifenesin, time-point 25 min
[8] = 30 μM flavour compound co-incubated with 10 mM guaifenesin, time-point 30 min
[9] = 100 mg/l (racemic) in aqueous 1.3 g/l guaifenesin versus 1.3 g/l guaifenesin

SMILES: COc1ccc([C@H]2Cc3cccc(O)c3C(=O)O2)cc1O [phyllodulcin, (3S)-/(3R)-8-hydroxy-3-(3-hydroxy-4-methoxy-phenyl)isochroman-1-one]
- Modulation versus control (relative difference in bitter ratings) ([1]; 7 mg/l (98 weight %, 95 mol % enantiomeric purity) in aqueous 1.3 g/l guaifenesin versus 1.3 g/l guaifenesin): −15%
- change in proton secretory activity of HGT-1 cells compared to 10 mM guaifenesin alone (HGT-1 cells): significant decrease
- proton secretory activity (log 2 transformed ratio of treated versus untreated cells), mean (HGT-1 cells; [2]): −0.08165*
- proton secretory activity (log 2 transformed ratio of treated versus untreated cells), mean (HGT-1 cells; [3]): 0.0579***
- proton secretory activity (log 2 transformed ratio of treated versus untreated cells), mean (HGT-1 cells; [4]): 0.07294***
- proton secretory activity (log 2 transformed ratio of treated versus untreated cells), mean (HGT-1 cells; [5]): −0.04172
- proton secretory activity (log 2 transformed ratio of treated versus untreated cells), mean (HGT-1 cells; [6]): 0.08512*
- proton secretory activity (log 2 transformed ratio of treated versus untreated cells), mean (HGT-1 cells; [7]): −0.1469
- proton secretory activity (log 2 transformed ratio of treated versus untreated cells), mean (HGT-1 cells; [8]): 0.1433***

SMILES: COc1ccccc1OCC(O)CO (stereo not drawn) [guaifenesin, 3-(2-methoxyphenoxy-)1,2-propanediol]
- proton secretory activity (log 2 transformed ratio of treated versus untreated cells), mean (HGT-1 cells; 10 mM guaifenesin alone, time-point 0 min): 0.2711 and 0.2596
- proton secretory activity (log 2 transformed ratio of treated versus untreated cells), mean (HGT-1 cells; 10 mM guaifenesin alone, time-point 5 min): 0.2378 and 0.2475
- proton secretory activity (log 2 transformed ratio of treated versus untreated cells), mean (HGT-1 cells; 10 mM guaifenesin alone, time-point 10 min): 0.2801 and 0.187
- proton secretory activity (log 2 transformed ratio of treated versus untreated cells), mean (HGT-1 cells; 10 mM guaifenesin alone, time-point 15 min): 0.2178 and 0.2259
- proton secretory activity (log 2 transformed ratio of treated versus untreated cells), mean (HGT-1 cells; 10 mM guaifenesin alone, time-point 20 min): 0.323 and 0.265
- proton secretory activity (log 2 transformed ratio of treated versus untreated cells), mean (HGT-1 cells; 10 mM guaifenesin alone, time-point 25 min): 0.3953 and 0.1861
- proton secretory activity (log 2 transformed ratio of treated versus untreated cells), mean (HGT-1 cells; 10 mM guaifenesin alone, time-point 30 min): 0.2706 and 0.2473

SMILES: COc1cc([C@@H]2CC(=O)c3c(O)cc(O)cc3O2)ccc1O (racemic) [homoeriodictyol, (2S)-/(2R)-5,7-Dihydroxy-2-(4-hydroxy-3-methoxyphenyl)-4-chromanone, reference compound]
- Modulation versus control (relative difference in bitter ratings) [1, 9]: −12%
- reduction in guaifenesin bitterness (guaifenesin bitterness): about 40%

SMILES: COc1ccc([C@@H]2CC(=O)c3c(O)cc(O)cc3O2)cc1O (racemic) [hesperetin, (2S)-/(2R)-5,7-dihydroxy-2-(3-hydroxy-4-methoxyphenyl)-4-chromanone]
- Modulation versus control (relative difference in bitter ratings) [1, 9]: −25%
- change in proton secretory activity of HGT-1 cells compared to 10 mM guaifenesin alone (HGT-1 cells): significant decrease
- proton secretory activity (log 2 transformed ratio of treated versus untreated cells), mean (HGT-1 cells; [2]): −0.132
- proton secretory activity (log 2 transformed ratio of treated versus untreated cells), mean (HGT-1 cells; [3]): 0.05735***
- proton secretory activity (log 2 transformed ratio of treated versus untreated cells), mean (HGT-1 cells; [4]): −0.04329*
- proton secretory activity (log 2 transformed ratio of treated versus untreated cells), mean (HGT-1 cells; [5]): 0.03955***
- proton secretory activity (log 2 transformed ratio of treated versus untreated cells), mean (HGT-1 cells; [6]): 0.002334***
- proton secretory activity (log 2 transformed ratio of treated versus untreated cells), mean (HGT-1 cells; [7]): 0.01577***
- proton secretory activity (log 2 transformed ratio of treated versus untreated cells), mean (HGT-1 cells; [8]): 0.02592***
